Assay results from patent US9532982B2, “Pharmaceutical combination comprising a phosphatidylinositol 3-kinase inhibitor and/an aromatase inhibitor” (Novartis AG, priority 2012, dated 2017).

How the values were obtained:
[1] = test system: MCF7/Aro human breast carcinoma cells; assay: Δ4A induced MCF7/Aro cell proliferation (CellTiter-Glo), Compound A and exemestane, Example 1; type: cell-based; details: 10 nM Δ4A, 5 days, vs DMSO control
Procedure: (§1) Synergy is calculated by comparing a combination's response to those of its single agents, against the drug-with-itself dose-additive reference model.

[2] = test system: MCF7/Aro human breast carcinoma cells; assay: Δ4A induced MCF7/Aro cell proliferation (CellTiter-Glo), Compound A and letrozole, Example 2; type: cell-based; details: 10 nM Δ4A, 5 days, vs DMSO control
Procedure: as §1

SMILES | maximum level inhibition of Δ4A-driven cell proliferation, single agent [1] [%] | maximum level inhibition of Δ4A-driven cell proliferation, single agent [2] [%]
Cc1nc(NC(=O)N2CCC[C@H]2C(N)=O)sc1-c1ccnc(C(C)(C)C(F)(F)F)c1 [Compound A, (S)-Pyrrolidine-1,2-dicarboxylic acid 2-amide 1-({4-methyl-5-[2-(2,2,2-trifluoro-1,1-dimethyl-ethyl)-pyridin-4-yl]-thiazol-2-yl}-amide)] | 61 | 61
C=C1C[C@@H]2[C@H](CC[C@]3(C)C(=O)CC[C@@H]23)[C@@]2(C)C=CC(=O)C=C12 [exemestane] | 33 | –
N#Cc1ccc(C(c2ccc(C#N)cc2)n2cncn2)cc1 [letrozole] | – | 53
